pIC50: −log10 of the molar value. Values joined by “and” are separate entries in the source; they are usually repeats but may differ in a detail not shown here. Equal values may be shown once.
Legend:
[1] = molecular target: Coagulation factor X (Homo sapiens, UniProt P00742); assay: Inhibition of F10a
[2] = test system: Plasma; assay: Anticoagulant activity in human plasma assessed as concentration required to double prothrombin time; type: functional
[3] = molecular target: Cytochrome P450 2C9 (Homo sapiens, UniProt P11712); assay: Inhibition of CYP2C9; type: ADME
[4] = molecular target: T1, Coagulation factor VII (Homo sapiens) (UniProt P08709); assay: Inhibition of F7a
T1 sequence (whole entry): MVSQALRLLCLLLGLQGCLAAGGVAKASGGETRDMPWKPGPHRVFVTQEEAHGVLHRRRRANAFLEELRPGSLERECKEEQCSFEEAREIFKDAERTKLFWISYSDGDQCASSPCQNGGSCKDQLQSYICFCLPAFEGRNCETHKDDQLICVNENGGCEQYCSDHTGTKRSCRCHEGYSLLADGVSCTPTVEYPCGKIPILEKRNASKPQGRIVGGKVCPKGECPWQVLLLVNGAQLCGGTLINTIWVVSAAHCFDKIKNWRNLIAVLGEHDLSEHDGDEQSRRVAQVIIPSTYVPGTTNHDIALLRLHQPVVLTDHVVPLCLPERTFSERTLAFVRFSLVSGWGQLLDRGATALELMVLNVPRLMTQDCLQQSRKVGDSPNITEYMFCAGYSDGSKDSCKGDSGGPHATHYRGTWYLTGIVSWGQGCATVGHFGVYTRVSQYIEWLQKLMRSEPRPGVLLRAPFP

[5] = Permeability from apical to basolateral side of the Caco-2 cell membrane at pH 6.5; type: ADME, cell-based; settings: human, Caco-2, pH 6.5; read-out: permeability
[6] = molecular target: Cytochrome P450 2C19 (Homo sapiens, UniProt P33261); assay: Inhibition of CYP2C19; type: ADME
[7] = molecular target: Cytochrome P450 3A4 (Homo sapiens, UniProt P08684); assay: Inhibition of CYP3A4; type: ADME
[8] = molecular target: Prothrombin (Homo sapiens) (UniProt P00734); assay: Inhibition of thrombin
[9] = molecular target: Cytochrome P450 2D6 (Homo sapiens, UniProt P10635); assay: Inhibition of CYP2D6; type: ADME
[10] = molecular target: T2, Cytochrome P450 1A2 (Homo sapiens, UniProt P05177); assay: Inhibition of CYP1A2; type: ADME
T2 sequence (P05177 whole entry): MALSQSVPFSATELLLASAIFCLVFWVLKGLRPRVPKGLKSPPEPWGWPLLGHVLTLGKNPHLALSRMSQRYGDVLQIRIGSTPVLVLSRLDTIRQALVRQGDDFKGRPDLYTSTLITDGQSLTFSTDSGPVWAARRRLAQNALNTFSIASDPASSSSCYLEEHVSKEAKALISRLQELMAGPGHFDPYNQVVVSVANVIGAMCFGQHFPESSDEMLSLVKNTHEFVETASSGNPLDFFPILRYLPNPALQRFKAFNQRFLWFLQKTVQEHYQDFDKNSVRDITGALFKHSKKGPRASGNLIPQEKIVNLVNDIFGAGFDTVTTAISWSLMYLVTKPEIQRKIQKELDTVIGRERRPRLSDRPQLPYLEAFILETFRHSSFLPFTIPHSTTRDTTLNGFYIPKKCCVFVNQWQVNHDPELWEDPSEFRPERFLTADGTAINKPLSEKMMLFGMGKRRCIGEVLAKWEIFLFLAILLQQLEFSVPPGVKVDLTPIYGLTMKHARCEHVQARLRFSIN

[11] = molecular target: Coagulation factor IX (Homo sapiens) (UniProt P00740); assay: Inhibition of F9a
[12] = molecular target: Plasma kallikrein (Homo sapiens) (UniProt P03952); assay: Inhibition of plasma kallikrein; type: cell-free
[13] = molecular target: Trypsin (Homo sapiens) (UniProt P07477+P07478+P35030); assay: Inhibition of trypsin; type: protein assay

Coagulation factor X, sequence (P00742 41-179 limits assumed): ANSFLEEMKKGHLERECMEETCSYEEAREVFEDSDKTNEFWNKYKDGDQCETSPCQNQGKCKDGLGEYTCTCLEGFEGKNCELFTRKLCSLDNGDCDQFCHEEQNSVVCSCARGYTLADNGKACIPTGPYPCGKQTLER
Coagulation factor X, sequence (P00742 235-488 limits assumed): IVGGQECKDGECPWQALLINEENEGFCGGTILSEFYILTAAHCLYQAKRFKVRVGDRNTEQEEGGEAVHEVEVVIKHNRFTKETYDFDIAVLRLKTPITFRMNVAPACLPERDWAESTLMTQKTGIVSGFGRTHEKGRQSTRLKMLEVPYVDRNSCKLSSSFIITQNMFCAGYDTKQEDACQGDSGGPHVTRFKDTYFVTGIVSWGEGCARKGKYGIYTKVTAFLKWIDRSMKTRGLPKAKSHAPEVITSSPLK
Cytochrome P450 3A4, sequence (P08684 whole entry): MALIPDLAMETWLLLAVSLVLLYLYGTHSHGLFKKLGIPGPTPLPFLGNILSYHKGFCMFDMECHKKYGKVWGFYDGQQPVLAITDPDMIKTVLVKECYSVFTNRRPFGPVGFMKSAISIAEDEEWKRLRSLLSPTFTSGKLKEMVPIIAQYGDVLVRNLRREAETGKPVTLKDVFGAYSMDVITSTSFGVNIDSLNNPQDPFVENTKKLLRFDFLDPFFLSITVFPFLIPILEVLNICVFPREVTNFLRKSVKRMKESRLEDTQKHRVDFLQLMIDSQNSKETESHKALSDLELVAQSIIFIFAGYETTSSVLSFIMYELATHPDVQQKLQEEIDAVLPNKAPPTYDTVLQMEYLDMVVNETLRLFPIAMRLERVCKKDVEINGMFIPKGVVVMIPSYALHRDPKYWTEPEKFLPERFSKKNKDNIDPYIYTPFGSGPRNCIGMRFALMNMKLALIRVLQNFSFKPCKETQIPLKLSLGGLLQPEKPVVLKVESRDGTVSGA
Cytochrome P450 2D6, sequence (P10635 whole entry): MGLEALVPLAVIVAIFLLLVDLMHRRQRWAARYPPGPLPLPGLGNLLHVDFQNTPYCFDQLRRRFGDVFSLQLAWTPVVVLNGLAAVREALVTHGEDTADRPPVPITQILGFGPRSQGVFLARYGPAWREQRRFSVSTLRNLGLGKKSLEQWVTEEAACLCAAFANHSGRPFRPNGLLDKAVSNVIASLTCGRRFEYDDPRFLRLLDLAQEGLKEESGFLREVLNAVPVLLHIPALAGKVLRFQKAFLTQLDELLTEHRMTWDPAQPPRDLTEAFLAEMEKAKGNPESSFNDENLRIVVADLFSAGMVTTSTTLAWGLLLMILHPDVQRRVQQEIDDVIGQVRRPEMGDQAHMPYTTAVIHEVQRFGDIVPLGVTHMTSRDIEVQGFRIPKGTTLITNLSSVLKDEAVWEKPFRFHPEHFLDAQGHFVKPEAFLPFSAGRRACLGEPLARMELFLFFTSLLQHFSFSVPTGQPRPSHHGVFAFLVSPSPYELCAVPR
Coagulation factor IX (Homo sapiens), sequence (P00740 47-191 limits assumed): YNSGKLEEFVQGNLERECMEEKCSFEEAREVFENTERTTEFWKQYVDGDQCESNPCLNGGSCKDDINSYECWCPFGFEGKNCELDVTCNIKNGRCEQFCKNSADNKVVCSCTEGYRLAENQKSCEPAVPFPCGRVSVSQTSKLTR
Coagulation factor IX (Homo sapiens), sequence (P00740 227-461 limits assumed): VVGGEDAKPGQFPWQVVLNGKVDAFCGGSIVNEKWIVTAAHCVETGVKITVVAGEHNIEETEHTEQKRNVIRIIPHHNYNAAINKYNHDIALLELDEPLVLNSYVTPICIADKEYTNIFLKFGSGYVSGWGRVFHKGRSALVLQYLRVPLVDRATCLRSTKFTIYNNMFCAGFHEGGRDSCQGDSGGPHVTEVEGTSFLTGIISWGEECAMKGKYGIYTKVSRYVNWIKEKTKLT
Cytochrome P450 2C9, sequence (P11712 whole entry): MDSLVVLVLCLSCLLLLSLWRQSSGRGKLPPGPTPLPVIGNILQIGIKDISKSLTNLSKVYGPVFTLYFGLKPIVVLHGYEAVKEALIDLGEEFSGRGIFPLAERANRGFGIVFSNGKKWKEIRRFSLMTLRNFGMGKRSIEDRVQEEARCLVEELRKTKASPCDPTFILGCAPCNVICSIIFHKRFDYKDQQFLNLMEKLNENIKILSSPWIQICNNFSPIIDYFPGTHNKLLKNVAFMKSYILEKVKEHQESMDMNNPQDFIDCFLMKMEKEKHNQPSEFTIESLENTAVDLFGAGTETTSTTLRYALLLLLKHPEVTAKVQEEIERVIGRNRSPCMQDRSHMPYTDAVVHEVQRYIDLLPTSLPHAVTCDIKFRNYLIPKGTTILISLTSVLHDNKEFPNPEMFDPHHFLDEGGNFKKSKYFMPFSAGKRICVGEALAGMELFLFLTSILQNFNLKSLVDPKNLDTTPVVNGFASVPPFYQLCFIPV
Cytochrome P450 2C19, sequence (P33261 whole entry): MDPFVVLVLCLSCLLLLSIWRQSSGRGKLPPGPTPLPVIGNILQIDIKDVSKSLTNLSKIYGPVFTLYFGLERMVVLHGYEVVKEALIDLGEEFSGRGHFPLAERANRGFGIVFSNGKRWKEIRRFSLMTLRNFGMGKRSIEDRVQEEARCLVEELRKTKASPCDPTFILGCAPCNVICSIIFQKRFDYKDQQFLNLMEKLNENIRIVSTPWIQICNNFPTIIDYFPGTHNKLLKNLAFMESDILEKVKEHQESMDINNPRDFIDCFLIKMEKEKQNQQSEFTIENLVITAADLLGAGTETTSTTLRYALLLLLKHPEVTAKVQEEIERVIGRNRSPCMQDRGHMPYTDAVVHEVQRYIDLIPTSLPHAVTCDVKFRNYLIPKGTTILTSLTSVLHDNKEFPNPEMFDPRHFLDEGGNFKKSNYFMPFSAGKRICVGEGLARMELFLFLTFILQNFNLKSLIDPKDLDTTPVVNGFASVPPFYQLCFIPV
Plasma kallikrein (Homo sapiens), sequence (P03952 20-390 limits assumed): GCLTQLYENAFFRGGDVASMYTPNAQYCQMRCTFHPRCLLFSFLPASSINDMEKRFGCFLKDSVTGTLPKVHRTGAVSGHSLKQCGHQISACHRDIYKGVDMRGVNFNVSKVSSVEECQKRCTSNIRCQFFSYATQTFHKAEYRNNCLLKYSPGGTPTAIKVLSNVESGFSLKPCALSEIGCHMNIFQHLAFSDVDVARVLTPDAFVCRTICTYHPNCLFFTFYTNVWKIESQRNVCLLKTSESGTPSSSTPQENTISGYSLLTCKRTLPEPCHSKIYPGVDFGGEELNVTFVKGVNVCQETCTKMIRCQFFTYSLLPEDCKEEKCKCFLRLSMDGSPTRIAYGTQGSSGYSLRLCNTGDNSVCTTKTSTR
Plasma kallikrein (Homo sapiens), sequence (P03952 391-638 limits assumed): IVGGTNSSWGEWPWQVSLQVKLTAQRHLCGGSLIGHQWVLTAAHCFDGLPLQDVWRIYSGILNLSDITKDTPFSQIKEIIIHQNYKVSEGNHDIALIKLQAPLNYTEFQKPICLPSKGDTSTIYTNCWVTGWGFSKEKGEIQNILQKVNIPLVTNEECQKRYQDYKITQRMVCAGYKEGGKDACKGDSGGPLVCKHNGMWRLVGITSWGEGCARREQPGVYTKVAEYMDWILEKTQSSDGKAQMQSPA

Row | Compound | pIC50 [1] | Activity [2] [µM] | other results
1 | O=C(c1ccc(-n2ccnc2)cc1)N1CC[C@H](CNS(=O)(=O)/C=C/c2ccc(Cl)s2)C1 | 5.89 | – | –
2 | Cc1nccc(N2CCC(C(=O)N3CC[C@H](CNS(=O)(=O)/C=C/c4ccc(Cl)s4)C3)CC2)n1 | 6.14 | – | –
3 | O=C(N1CCCC1)N1CC[C@H](CNS(=O)(=O)c2ccc(-c3ccc(Cl)s3)s2)C1 | 6.89 | 130 | –
4 | O=C(C1CCN(c2ccncc2)CC1)N1CCC(CNS(=O)(=O)c2cc3ccc(Cl)cc3s2)C1 (racemic) | 6.59 | 45 | –
5 | O=C(C1CCN(c2ccncc2)CC1)N1CC[C@@H](CNS(=O)(=O)c2ccc(-c3ccc(Cl)s3)s2)C1 | 7.74 | 6.8 | pIC50 [3]: 5.83; Activity [4]: > 30 µM; Papp A→B [5]: < 1.5 ×10⁻⁶ cm/s; pIC50 [6]: 4.85; pIC50 [7]: 5.63 and 6.00; Activity [8]: > 30 µM; pIC50 [9]: 5.10; pIC50 [10]: < 4.70; Activity [11]: > 30 µM; Activity [12]: > 30 µM; Activity [13]: > 30 µM
6 | Cc1nccc(N2CCC(C(=O)N3CC[C@@H](CNS(=O)(=O)c4ccc(-c5ccc(Cl)s5)s4)C3)CC2)n1 | 7.21 | 50 | –
7 | O=C(C1CCN(c2ccncc2)CC1)N1CC[C@H](CNS(=O)(=O)/C=C/c2ccc(Cl)s2)C1 | – | 13 | –
8 | O=C(C1CCN(c2ccncc2)CC1)N1CCC(CNS(=O)(=O)c2ccc3ccccc3c2)C1 (racemic) | 5.96 | – | –
9 | O=C(C1CCN(c2ccncc2)CC1)N1CC[C@@H](CNS(=O)(=O)/C=C/c2ccc(Br)s2)C1 | 7.66 | 5 | –
10 | O=C(C(=O)N1CCC[C@H]1CN1CCCC1)N1CC[C@H](CNS(=O)(=O)/C=C/c2ccc(Cl)s2)C1 | 7.15 | 8 | –
11 | O=C(C1CCN(c2ccncc2)CC1)N1CCC(CNS(=O)(=O)/C=C/c2ccc(Br)s2)C1 (racemic) | 7.07 | 8.7 | –
12 | NS(=O)(=O)c1ccccc1-c1ccc(C(=O)N2CC[C@@H](CNS(=O)(=O)/C=C/c3ccc(Cl)s3)C2)cc1 | 5.72 | – | –
13 | O=C(C(=O)N1CCC[C@H]1CN1CCCC1)N1CC[C@@H](CNS(=O)(=O)/C=C/c2ccc(Cl)s2)C1 | 6.36 | – | –
14 | O=C(N1CC[C@H](CNS(=O)(=O)c2ccc(-c3ccc(Cl)s3)s2)C1)N1CCC[C@H]1CN1CCCC1 | 7.40 | 13 | –
15 | O=C(C1CCN(c2ccncc2)CC1)N1CCC(CNS(=O)(=O)/C=C/c2ccc(Cl)cc2)C1 (racemic) | 6.31 | 32 | –
16 | O=C(C1CCN(c2ccncc2)CC1)N1CCC(CNS(=O)(=O)c2ccc3cc(Cl)ccc3c2)C1 (racemic) | 6.61 | 40 | –
17 | O=C(C1CCN(c2ccncc2)CC1)N1CCC(CNS(=O)(=O)/C=C/c2cccc(Cl)c2)C1 (racemic) | 5.37 | – | –
18 | O=C(C1CCN(c2ccncc2)CC1)N1CC[C@@H](CNS(=O)(=O)/C=C/c2ccc(Cl)s2)C1 | – | 1.7 | –
19 | Cc1nccc(N2CCC(C(=O)N3CC[C@@H](CNS(=O)(=O)/C=C/c4ccc(Cl)s4)C3)CC2)n1 | 6.64 | 28 | –

— ChEMBL document CHEMBL1140480, “Amino(methyl) pyrrolidines as novel scaffolds for factor Xa inhibitors” (Bioorg Med Chem Lett, 2007)
